This assay addresses GTPase KRas (G12D) and Son of Sevenless Homolog 1 (SOS) (Homo sapiens, UniProt P01116, G12D). Nature of the assay: AlphaScreen Assay. Background: Bead proximity is the source of the signal in Alpha formats.

The text below walks through data of BindingDB's records for patent US20240148821 (Chugai Seiyaku Kabushiki Kaisha, 2024).

Numbered stars: 1 amine (or outer) side, 2 acyl side, 3 side chain; on linkers, the order of the positions; unused ones are H or OH. Bridge positions count the residues as written; N and C are the ends. Square brackets hold non-standard residues; d marks the D form. Peptide text beside a SMILES is read from it. * marks the point of attachment. hPhe(3-Cl-4-CF3) = N[C@@H](CCc1ccc(C(F)(F)F)c(Cl)c1)C(=O)O; hPhe(3-F,4-CF3) = N[C@@H](CCc1ccc(C(F)(F)F)c(F)c1)C(=O)O; X134 = CN([C@@H](Cc1ccc(C#N)nc1)C(=O)[*:2])[*:1]; NMeTyr(3-F) = CN[C@@H](Cc1ccc(O)c(F)c1)C(=O)O; NMeGly(cBu) = CN[C@H](C(=O)O)C1CCC1; NMeCha = CN[C@@H](CC1CCCCC1)C(=O)O; cisHyp = O=C(O)[C@@H]1C[C@H](O)CN1; X108 = O=C(CN(c1ccsc1)[*:1])[*:2]; NMeChg = CN[C@H](C(=O)O)C1CCCCC1; NMeD = CN[C@@H](CC(=O)O)C(=O)O; NMeL = CN[C@@H](CC(C)C)C(=O)O; NMeA = CN[C@@H](C)C(=O)O; Piperidide = C1CCN(*)CC1; Ac5c = NC1(C(=O)O)CCCC1; Nlys = NCCCCNCC(=O)O; Meb = Cc1ccc(C*)cc1; Sar = CNCC(=O)O

Chain of GTPase KRas (G12D) and Son of Sevenless Homolog 1 (SOS) (P01116 whole entry G12D): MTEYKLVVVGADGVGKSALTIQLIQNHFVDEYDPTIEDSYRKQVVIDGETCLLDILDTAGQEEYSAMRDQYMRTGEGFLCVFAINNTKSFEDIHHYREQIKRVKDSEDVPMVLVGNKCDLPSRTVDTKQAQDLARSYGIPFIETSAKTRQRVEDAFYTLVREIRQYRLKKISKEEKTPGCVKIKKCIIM
Chain of GTPase KRas (G12D) and Son of Sevenless Homolog 1 (SOS) (Q07889 whole entry, further chain): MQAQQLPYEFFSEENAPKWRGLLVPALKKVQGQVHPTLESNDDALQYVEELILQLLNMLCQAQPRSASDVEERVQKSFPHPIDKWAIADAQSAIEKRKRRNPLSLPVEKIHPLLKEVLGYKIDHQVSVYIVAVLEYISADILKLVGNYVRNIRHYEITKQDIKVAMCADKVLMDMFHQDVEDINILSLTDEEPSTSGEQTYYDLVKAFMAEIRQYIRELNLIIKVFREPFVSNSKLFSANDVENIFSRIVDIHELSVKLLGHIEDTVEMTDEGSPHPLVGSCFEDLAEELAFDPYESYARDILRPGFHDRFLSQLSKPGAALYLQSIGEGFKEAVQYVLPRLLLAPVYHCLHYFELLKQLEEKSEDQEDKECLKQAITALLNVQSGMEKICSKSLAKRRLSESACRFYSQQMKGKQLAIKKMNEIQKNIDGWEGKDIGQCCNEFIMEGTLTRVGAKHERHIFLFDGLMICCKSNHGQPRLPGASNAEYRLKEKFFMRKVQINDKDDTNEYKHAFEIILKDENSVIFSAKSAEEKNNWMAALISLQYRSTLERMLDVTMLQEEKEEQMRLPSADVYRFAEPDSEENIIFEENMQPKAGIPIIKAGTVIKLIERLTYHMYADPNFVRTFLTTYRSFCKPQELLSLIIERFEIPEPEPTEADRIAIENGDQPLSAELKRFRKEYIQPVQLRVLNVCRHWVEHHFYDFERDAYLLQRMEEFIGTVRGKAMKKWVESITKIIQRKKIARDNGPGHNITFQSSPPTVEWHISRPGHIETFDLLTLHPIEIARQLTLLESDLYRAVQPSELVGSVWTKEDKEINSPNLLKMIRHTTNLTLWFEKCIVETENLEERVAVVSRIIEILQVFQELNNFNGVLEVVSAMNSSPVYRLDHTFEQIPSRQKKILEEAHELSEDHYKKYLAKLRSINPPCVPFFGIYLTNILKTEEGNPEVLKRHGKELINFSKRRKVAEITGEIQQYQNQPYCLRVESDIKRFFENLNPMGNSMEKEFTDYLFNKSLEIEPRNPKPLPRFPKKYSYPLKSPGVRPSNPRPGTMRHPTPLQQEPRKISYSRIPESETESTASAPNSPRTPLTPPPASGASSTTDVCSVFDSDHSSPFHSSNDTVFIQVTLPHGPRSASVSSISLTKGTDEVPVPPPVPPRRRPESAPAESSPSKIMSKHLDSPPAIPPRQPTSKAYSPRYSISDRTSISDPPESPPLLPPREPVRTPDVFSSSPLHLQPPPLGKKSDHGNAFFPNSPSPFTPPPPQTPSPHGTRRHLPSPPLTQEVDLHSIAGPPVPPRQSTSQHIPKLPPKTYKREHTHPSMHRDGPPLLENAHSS
Method: Protein-protein interaction inhibition (PPI) between Kras and SOS1 was measured by energy transfer from nickel-conjugated donor beads to streptavidin-conjugated acceptor beads using biotin-tagged human Kras expressed in E. coli and loaded with GDP after purification and His-tagged human SOS1 enzyme. This measurement utilizes the phenomenon in which donor beads are irradiated with light at 680 nm, such that energy is transferred to acceptor beads through singlet oxygen and light at 520-620 nm is detected from the acceptor beads.

One may read the IC50 as the concentration at which inhibition is half-maximal. A lower IC50 goes with higher potency. In turn, `CC[C@H](C)[C@@H]1NC(=O)[C@H](CC(C)C)N(C)C(=O)C[C@@H](C(=O)N2CCCCC2)N(C)C(=O)[C@H](CC(C)C)N(C)C(=O)C2(CCCC2)NC(=O)[C@@H]2C[C@H](OCc3ccc(C)cc3)CN2C(=O)[C@H](CCc2ccc(C(F)(F)F)c(F)c2)NC(=O)CN(C)C(=O)[C@H](CC2CCCCC2)N(C)C(=O)CN(C)C(=O)CN(C)C1=O` [US20240148821, Compound 2140] ([NMeL]I[Sar][Sar][NMeCha][Sar][hPhe(3-F,4-CF3)][cisHyp](Meb)[Ac5c][NMeL][NMeD]-Piperidide; lactam N-11) had an IC50 of 32 nM.

For `CC[C@H](C)[C@@H]1NC(=O)[C@H](C)N(C)C(=O)C[C@@H](C(=O)N2CCCCC2)N(C)C(=O)[C@H](C2CCC2)N(C)C(=O)C2(CCCC2)NC(=O)CN(c2ccsc2)C(=O)[C@H](CCc2ccc(C(F)(F)F)c(Cl)c2)NC(=O)CN(C)C(=O)[C@H](CC2CCCCC2)N(C)C(=O)CN(C)C(=O)CN(C)C1=O` [US20240148821, Compound 2149] ([NMeA]I[Sar][Sar][NMeCha][Sar][hPhe(3-Cl-4-CF3)][X108][Ac5c][NMeGly(cBu)][NMeD]-Piperidide; lactam N-11), half-maximal inhibition (IC50) was put at 4 nM. This IC50 is about 8-fold lower than that of the compound before.

In turn, `CC[C@H](C)[C@@H]1NC(=O)[C@H](CC(C)C)N(C)C(=O)C[C@@H](C(=O)N2CCCCC2)N(C)C(=O)[C@H](C2CCCCC2)N(C)C(=O)C2(CCCC2)NC(=O)[C@H](Cc2ccc(C#N)nc2)N(C)C(=O)[C@H](CCc2ccc(C(F)(F)F)c(Cl)c2)NC(=O)CN(C)C(=O)[C@H](CC2CCCCC2)N(C)C(=O)CN(C)C(=O)CN(C)C1=O` [US20240148821, Compound 2169] ([NMeL]I[Sar][Sar][NMeCha][Sar][hPhe(3-Cl-4-CF3)][X134][Ac5c][NMeChg][NMeD]-Piperidide; lactam N-11) had a half-maximal inhibitory concentration (IC50) of 6.1 nM.

`CC[C@H](C)[C@@H]1NC(=O)[C@H](CC(C)C)N(C)C(=O)C[C@@H](C(=O)N2CCCCC2)N(C)C(=O)[C@H](C2CCCCC2)N(C)C(=O)C2(CCCC2)NC(=O)[C@H](Cc2ccc(O)c(F)c2)N(C)C(=O)[C@H](CCc2ccc(C(F)(F)F)c(Cl)c2)NC(=O)CN(C)C(=O)[C@H](CC2CCCCC2)N(C)C(=O)CN(C)C(=O)CN(C)C1=O` [US20240148821, Compound 2170] ([NMeL]I[Sar][Sar][NMeCha][Sar][hPhe(3-Cl-4-CF3)][NMeTyr(3-F)][Ac5c][NMeChg][NMeD]-Piperidide; lactam N-11) had an IC50 of 69 nM.

As to `CC[C@H](C)[C@@H]1NC(=O)[C@H](CC(C)C)N(C)C(=O)C[C@@H](C(=O)N2CCCCC2)N(C)C(=O)[C@H](C2CCCCC2)N(C)C(=O)C2(CCCC2)NC(=O)CN(CCCCN)C(=O)[C@H](CCc2ccc(C(F)(F)F)c(Cl)c2)NC(=O)CN(C)C(=O)[C@H](CC2CCCCC2)N(C)C(=O)CN(C)C(=O)CN(C)C1=O` [US20240148821, Compound 2186] ([NMeL]I[Sar][Sar][NMeCha][Sar][hPhe(3-Cl-4-CF3)][Nlys][Ac5c][NMeChg][NMeD]-Piperidide; lactam N-11), the half-inhibitory concentration (IC50) amounted to 7.5 nM. Against the preceding compound, the IC50 is about 9.2-fold lower.
